These results are taken from PMC10337483 (Biochemistry, 2022).

For orientation: Ki means the equilibrium dissociation constant of an inhibitor or competing ligand from its target.

SMILES strings stand for the structures. Entries after “also recorded” stand apart in the source; their conditions may differ.

The test system of series [1] is BV2 microglial cells stimulated with LPS. The series is described as follows: IL-6 level by ELISA in BV2 microglial cells stimulated with LPS. Type of series: cell-based. The note with it: for effect on IL-6 level (pro-inflammatory activity): 0–5 μM, LPS-stimulated BV2, in words; for IL-6 expression (ELISA): 5 μM, LPS-stimulated BV2. (An ELISA detects its analyte on a solid surface through an enzyme-linked reagent.)

Series [2] shares this test system. The series is described as follows: IL-10 level by ELISA in BV2 microglial cells stimulated with LPS. Type of series: cell-based. The note with it: for expression of the anti-inflammatory cytokines: 5 μM, in words; for effect on IL-10 levels: 0–5 μM, LPS-stimulated BV2, in words; for levels of IL-10 (ELISA): LPS-stimulated BV2, 5 μM implied.
The format of series [3] is in vivo, mouse. The note with it: for concentration of metabolite formed, detected in plasma: mice given CBG 20 mg/kg, after 0.5 h.
The conditions of series [4]: after 0.5 h; cited from earlier work.
The subject of series [5] is CYP2C8. The conditions noted are these: human.
The target of series [6] is T1, CYP2D6 (Homo sapiens, UniProt P10635).
Series [7] relates to BV2 microglial cells stimulated with LPS. The experiment in a line: Nitric oxide level in BV2 microglial cells stimulated with LPS. The conditions noted are these: highest reduction among analogs (Figure S8). Type of series: cell-based.
Series [8] has as its target T1, CYP2D6. The experiment in a line: biochemical.
The test system of series [9] is CYP2J2, 3A4, 2D6, 2C9 and 2C8. Type of series: in vitro ADME. The note with it: human.
For another series, the target named is CYP3A4 (Homo sapiens, UniProt P08684). The experiment in a line: Spectral.
Series [10] concerns CYP2C8. The series is described as follows: Spectral. The note with it: presence versus absence of CBG.
In series [11] the test system is human liver microsomes (HLM). The experiment in a line: CBG metabolism by human liver microsomes, targeted mass spectrometry. Type of series: in vitro ADME. In general terms: Liver microsomes are vesicles of endoplasmic reticulum, rich in cytochrome P450 enzymes.

T1 sequence (P10635 whole entry): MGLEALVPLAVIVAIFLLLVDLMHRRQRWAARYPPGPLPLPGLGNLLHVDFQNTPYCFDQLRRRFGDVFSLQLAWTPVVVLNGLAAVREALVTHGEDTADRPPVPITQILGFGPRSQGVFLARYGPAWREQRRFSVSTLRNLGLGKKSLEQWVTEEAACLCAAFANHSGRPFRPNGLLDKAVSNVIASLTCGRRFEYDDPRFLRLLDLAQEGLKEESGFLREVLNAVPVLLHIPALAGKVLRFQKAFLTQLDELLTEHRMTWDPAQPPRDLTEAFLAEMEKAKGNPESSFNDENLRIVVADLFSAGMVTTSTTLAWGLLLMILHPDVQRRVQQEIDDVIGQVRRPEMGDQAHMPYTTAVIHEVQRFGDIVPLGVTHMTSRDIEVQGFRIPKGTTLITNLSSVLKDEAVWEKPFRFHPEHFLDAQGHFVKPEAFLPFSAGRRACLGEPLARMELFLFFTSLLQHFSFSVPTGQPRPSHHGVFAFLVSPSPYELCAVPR
Chain of CYP3A4 (P08684 whole entry): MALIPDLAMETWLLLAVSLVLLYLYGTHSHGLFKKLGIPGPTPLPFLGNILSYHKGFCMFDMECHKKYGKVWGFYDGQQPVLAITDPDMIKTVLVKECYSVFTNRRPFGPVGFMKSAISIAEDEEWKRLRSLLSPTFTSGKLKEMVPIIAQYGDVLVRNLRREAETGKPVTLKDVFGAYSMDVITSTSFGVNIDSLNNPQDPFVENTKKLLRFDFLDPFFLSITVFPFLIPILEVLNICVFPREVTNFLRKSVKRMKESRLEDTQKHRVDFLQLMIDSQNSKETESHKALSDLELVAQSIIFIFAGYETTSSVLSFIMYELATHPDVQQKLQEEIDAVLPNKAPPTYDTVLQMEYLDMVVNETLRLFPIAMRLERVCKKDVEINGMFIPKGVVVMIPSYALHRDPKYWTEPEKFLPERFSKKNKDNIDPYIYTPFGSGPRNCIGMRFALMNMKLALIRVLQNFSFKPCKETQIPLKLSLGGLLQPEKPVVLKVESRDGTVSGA

Consider `CCCCCc1cc(O)c(CC(O)C(C)(O)CCC=C(C)C)c(O)c1` (stereo not shown) [2′,3′-dihydroxy-CBG, 2′,3′-dihydroxy CBG], for which the “effect on IL-6 level (pro-inflammatory activity)” value (shortened to “effect on IL-6 level”) in [1] is reported as “concentration dependent reduction in IL-6 level”. Besides, in [2], the “expression of the anti-inflammatory cytokines” value is “maximum expression of the anti-inflammatory cytokines”.
For `CCCCCc1cc(O)c(C/C=C(\C)CCC2OC2(C)C)c(O)c1` (stereo not shown) [6′,7′-epoxy-CBG], the “effect on IL-6 level” value in [1] is “lowering in IL-6 expression”. The “effect on IL-10 levels” value in series [2] is reported as “concentration dependent increase in IL-10 levels”. In addition, the “concentration of metabolite formed, detected in plasma” value in [3] turned out to be 7.5 nM.
With `C=C(C)[C@@H]1CCC(C)=C[C@H]1c1c(O)cc(CCCCC)cc1O` [CBD, cannabidiol], the “level in human blood plasma” value in series [4] was ~ 0.14 μM.
With `CCCCCc1cc(O)c(C/C=C(\C)CCC=C(C)C)c(O)c1` [CBG, Cannabigerol], the “Ks of CBG higher than for CYP2J2” value in the series with CYP2C8 [5] is listed as around 3 times. In [1], the “effect on IL-6 level” value was “concentration dependent reduction in IL-6 level” and the “IL-6 expression (ELISA)” value was found to be 414.2±75.2. Moreover, in [2], the “effect on IL-10 levels” value was “concentration dependent increase in IL-10 levels”, the “expression of the anti-inflammatory cytokines” value is listed as “maximum expression of the anti-inflammatory cytokines” and the “levels of IL-10 (ELISA)” value is on record as 236.03±12.35. On CYP2D6 [6], the “Ks for CBG binding lower than for TDZ binding” value was around 3.5 times and the “Ks of CBG higher than for CYP2J2” value was around 3 times. For the same molecule, the “% NO level” value in [7] worked out at 64.1±5.9%. Moreover, the inhibition constant (Ki) at CYP2D6 [8] was 10 to 20 µM. In addition, the “Km for formation of cyclo-CBG, CYP2J2 relative to 2D6 and 2C8” value in series [9] is reported as 1.5–2 times. In addition, in series [3] (female, mouse, in vivo), the concentration at 0.5 h was in the range of 500 to 700 nM and the concentration at 2 h is around 50 nM. The molecule also came in with an inhibition constant (Ki) at CYP3A4 of 10 to 20 µM.
With `CC1=C(/C=C/C(C)=C/C=C/C(C)=C/C(=O)O)C(C)(C)CCC1` [RTA, all trans-retinoic acid], in the series with CYP2C8 [10], the “increase of Ks on addition of RTA to CBG-bound CYP” value is on record as ~ 1.3 times and the “increase of ΔAmax on addition of RTA to CBG-bound CYP” value was ~ 1.2 times.
As for `CCCCCc1cc(O)c2c(c1)OC(C)(C)[C@@H]1CCC(C)=C[C@@H]21` [THC, Δ^9-tetrahydrocannabinol], the “level in human blood plasma” value in series [4] was ~ 0.06 μM.
As to `C[C@]12CC[C@H]3[C@@H](CCC4=CC(=O)CC[C@@]43C)[C@@H]1CC[C@@H]2O` [TST, testosterone, reference compound], the “TST binds more strongly as compared to CBG” value on CYP3A4 (direct binding, TST versus CBG) was around 5 times.
`CCCCCc1cc(O)c(C/C=C(\C)CCC(O)C(C)(C)O)c(O)c1` (stereo not shown) [carmagerol, 6′,7′-dihydroxy CBG]: in series [1], the “effect on IL-6 level” value is “lowering in IL-6 expression; also recorded: highest reduction in the pro-inflammatory activity” and the “IL-6 expression (ELISA)” value was 307.8±159.1. In addition, in series [2], the “effect on IL-10 levels” value is “concentration dependent increase in IL-10 levels” and the “levels of IL-10 (ELISA)” value is 159.5±16.7. For the same molecule, the “% NO level” value in [7] was determined as 60.0±6.03%.
`CCCCCc1cc(O)c2c(c1)OC(C)(CCC=C(C)C)C(O)C2` (stereo not shown) [cyclo-CBG]: the “amount of cyclo-CBG produced relative to 6′,7′-epoxy-CBG” value in [11] is ~ 100 fold. For the same molecule, the “concentration of metabolite formed, detected in plasma” value in series [3] came to 1500 nM. Moreover, in series [3] (plasma of CBG treated mice), the “amount of cyclo-CBG relative to 6′,7′-epoxy-CBG in plasma” value is recorded as ~ 100 times.
Take `CCCCCc1cc(O)c(C/C=C(\C)CC/C=C(\C)CCC=C(C)C)c(O)c1` [sCBG, sesqicannabigerol]: the “effect on IL-6 level” value in series [1] was “concentration dependent reduction in IL-6 level”. Moreover, in series [1] (inflammatory cytokines in BV2 model, in words), the “bioactivity compared to CBG metabolites having polar functional groups” value is given as “does not significant bioactivity”.
